Test results published in patent US7691849B2, “Carboxamidine derivatives and their use in the treatment of vascular diseases” (CytRx Corporation, priority 2002, dated 2010).

Experiments:
[1] = tested on: human umbilical vein endothelial cells (HUVEC); assay: Wounding migration assay in endothelial cell culture; assay type: cell-based; conditions: wounded HUVEC monolayer, 24 hours after wounding, active agent 10^-6 M
Source text: The following compounds of the Invention are especially preferable: • 1. N-[3-(1-piperidinyl)propoxy]-pyridin-1-oxide-3-carboxamidine • 2. N-[3-(1-piperidinyl)propoxy]-pyridin-1-oxide-3-carboximidoyl chloride • 3. N-[2-hydroxy-3-(1-piperidinyl)propoxy]-N′-n-butyl-pyridin-1-oxide-4-carboxamidine • 4. N-[3-(1-oxido-1-piperidinyl)propoxy]-3-nitro-benzimidoyl-chloride dihydrate • 5. 2-chloro-N-[3-(4-oxido-4-morpholinyl)propoxy]-benzimidoyl chloride • 6. (R,S)-5,6-dihydro-5-[(1-piperidinyl)methyl]-3-(1-oxido-3-pyridyl)-4H-1,2,4-oxadiazine • 7. 5,6-dihydro-5-[(4-benzyl-1-piperidinyl)methyl]-3-(3-pyridyl)-4H-1,2,4-oxadiazine • 8. (R) or (S)-5,6-dihydro-5-[(2-oxo-1-piperidinyl)methyl]-3-(3-pyridyl)-4H-1,2,4-oxadiazine • 9. (+)-5,6-dihydro-5-[(1-piperidlnyl)methyl]-3-(1-oxido-3-pyridyl)4H-1,2,4-oxadiazine • 10. (R) or (S)-5,6-dihydro-5-[(1-oxido-1-piperidinyl)methyl]-3-(1-oxido-3-pyridyl)-4H-1,2,4-oxadiazine • 11. 5.6-dihydro-5-[(4-hydroxy-1-piperidinyl)methyl]-3-(3-pyridyl)-4H-1,2,4-oxadiazine • 12. N-[2-chloro-3-(1-piperidinly)propoxyl]-benzimidoyl chloride hydrochloride • 13. N-[2-hydroxy-3-(1-piperidinyl)propoxy]-pyridin-1-oxide-3-carboxamide • The biological effects of the compounds of the invention were tested by the following experiments: • Wounding migration assay in endothelial cell culture
The effect of the compounds of the invention on the wounded monolayers of human umbilical vein endothelial cells (HUVEC) were studied in a cell culture system (in vitro). After reaching confluence, the HUVEC cells were wounded according to the method of Yamamura et al (J. Surgical Res. 63, 349-354, 1996). The number of migrated cells were registered using computerized image analysis 24 hours after wounding in the absence and presence of the active agents under testing in a concentration of 10^−6 M. The active ingredient described in publication no. WO 98/06400, namely 5,6-dihydro-5-(1-piperidinyl)-methyl-3-(3-pyridyl)-4H-1,2,4-oxadiazine was used as reference compound.

[2] = tested on: thoracic aorta of SH rats; assay: Vaso-relaxing effect on the thoracic aorta of SH rats treated for one month (in vitro testing of aorta rings); assay type: in vivo, rat; conditions: aorta rings contracted with 10^-6 M methoxamine
Description: In the following, we give the results of the test of blood vessel relaxing effect, performed in vitro on rat vessels, and also the morpholocial results of the thoracic aorta.
(§1) Three-month-old, genetically hypertonic (SH) Wistar Okamoto rats were treated for one month with various test compounds. Thereafter the functional and morphological tests were performed.
The Vaso-relaxing Effect of the Compounds of the Invention on the Thoracic Aorta of SH Rats (in Vitro Testing)
The test was performed by the method known from the literature [Japan J. Pharmacol., 59, 339-347 (1992)]. The SH rats were anesthetized with Nembutal (40 mg/kg, i. p.), then the thoracic aorta was removed and placed in oxygenized (95% O2+5% CO2) Krebs-Henseleit solution. The composition of the solution (mM): NaCl 118, KCl 4,7, CaCl2 2,52, MgSO4 1,64, NaHCO3 24,88, KH2PO4 1,18, glucose 5,5. The 3-mm-long aorta rings were suspended in a 20 ml organ bath of 37° C. The resting tension was 1 g, which was maintained throughout the equilibration. During the 1 hour equilibration, the medium was changed in every 20 minutes. The vessels were contracted with 10^−6 M methoxamine (approx. 80% of maximal contraction). After reaching the maximal contraction, we tested the vasodilation resulting as the effect of the acetylcholine (Ach) (10^−6-10^−4 M), which informed us about the condition of the endothelium of the vessel wall. The contraction force was measured by an isometric strain gauge (SG-01D, Experimentia Ltd), and was registered on an OH-850 polygraph (Radelkis). At this time again, 5,6-dihydro-5-(1-piperidinyi)-methyl-3-(3-pyridyl)-4H-1,2,4-oxadiazine as described in WO 98/06400 was used as a reference compound.

[3] = tested on: thoracic aorta of SH rats; assay: Morphological testing of the thoracic aortas with electron microscopy; assay type: in vivo, rat; set-up: key: 1 was used to refer to cases where no regeneration was observable; 2 refers to weak; 3 to average; 4 to good; 5 to strong regeneration; conditions: SH rats treated one month, scale of 1 to 5, electron microscopy of thoracic aorta
Description: as §1
Morphological Testing of the Thoracic Aortas with Electron Microscopy
The test was performed according to the procedure known from the literature (Br. J. of Pharmacol., 1995; 115, 415-420). 1 mm^2 pieces of the aorta wall was cut out of the thoracic aorta of the rats, and were then fixed with 2.5% glutaraldehyde at room temperature for 2 hours. This was followed by a post-fixation with 1% osmium tetroxide for 1 hour. Afterwards, the tissue pieces were dehydrated with ethanol, and embedded in Durcupan ACM. The samples were evaluated qualitatively based on the images recorded on a Hitachi 7100 electron microscope.
On the scale, 1 was used to refer to cases where no regeneration was observable, 2 refers to weak, 3 to average, 4 to good, and 5 to strong regeneration.

Compound | number of migrated cells [1] | vessel relaxing effect (vasodilation by acetylcholine) ([2]; Ach 10^-4 M, 20 mg/kg) | vessel relaxing effect (vasodilation by acetylcholine) ([2]; Ach 10^-5 M, 20 mg/kg) | vessel relaxing effect (vasodilation by acetylcholine) ([2]; Ach 10^-6 M, 20 mg/kg) | Degree of regeneration ([3]; 20 mg/kg p.o.) | also measured
Cl.ClC(=NOCC(Cl)CN1CCCCC1)c1ccccc1 (stereo not shown) [Compound 12, N-[2-chloro-3-(1-piperidinly)propoxyl]-benzimidoyl chloride hydrochloride] | 60 cell/mm^2 | 80.4 | 83.5 | 82.3 | 3 | 
[O-][n+]1cccc(C2=NOCC(CN3CCCCC3)N2)c1 (single isomer, unassigned; (+)) [Compound 9, (+)-5,6-dihydro-5-[(1-piperidinyl)methyl]-3-(1-oxido-3-pyridyl)-4H-1,2,4-oxadiazine] | 52 cell/mm^2 |  |  |  |  | vessel relaxing effect (vasodilation by acetylcholine) ([2]; Ach 10^-4 M, 5 mg/kg): 93.2; vessel relaxing effect (vasodilation by acetylcholine) ([2]; Ach 10^-5 M, 5 mg/kg): 87.9; vessel relaxing effect (vasodilation by acetylcholine) ([2]; Ach 10^-6 M, 5 mg/kg): 87.0; Degree of regeneration ([3]; 5 mg/kg p.o.): 5
OC1CCN(CC2CON=C(c3cccnc3)N2)CC1 (stereo not shown) [Compound 11, 5.6-dihydro-5-[(4-hydroxy-1-piperidinyl)methyl]-3-(3-pyridyl)-4H-1,2,4-oxadiazine] | 51 cell/mm^2 |  |  |  |  | vessel relaxing effect (vasodilation by acetylcholine) ([2]; Ach 10^-4 M, 10 mg/kg): 86.0; vessel relaxing effect (vasodilation by acetylcholine) ([2]; Ach 10^-5 M, 10 mg/kg): 85.1; vessel relaxing effect (vasodilation by acetylcholine) ([2]; Ach 10^-6 M, 10 mg/kg): 79.7; Degree of regeneration ([3]; 10 mg/kg p.o.): 4
O=C(NOCC(O)CN1CCCCC1)c1ccc[n+]([O-])c1 (stereo not shown) [Compound 13, N-[2-hydroxy-3-(1-piperidinyl)propoxy]-pyridin-1-oxide-3-carboxamide] | 54 cell/mm^2 |  |  |  | 4 | vessel relaxing effect (vasodilation by acetylcholine) ([2]; Ach 10^-4 M, dose not given): 95.2; vessel relaxing effect (vasodilation by acetylcholine) ([2]; Ach 10^-5 M, dose not given): 90.3; vessel relaxing effect (vasodilation by acetylcholine) ([2]; Ach 10^-6 M, dose not given): 88.4
c1cncc(C2=NOCC(CN3CCCCC3)N2)c1 (stereo not shown) [Reference, 5,6-dihydro-5-(1-piperidinyl)-methyl-3-(3-pyridyl)-4H-1,2,4-oxadiazine, reference compound] | 30 cell/mm^2 | 81.7 | 80.2 | 77.4 |  | 
O=C1CCCCN1CC1CON=C(c2cccnc2)N1 (single isomer, unassigned) [Compound 8, (R) or (S)-5,6-dihydro-5-[(2-oxo-1-piperidinyl)methyl]-3-(3-pyridyl)-4H-1,2,4-oxadiazine] | 48 cell/mm^2 | 89.2 | 88.0 | 80.3 |  | Degree of regeneration ([3]; 5 mg/kg p.o.): 5
O.O.O=[N+]([O-])c1cccc(C(Cl)=NOCCC[N+]2([O-])CCCCC2)c1 [Compound 4, N-[3-(1-oxido-1-piperidinyl)propoxy]-3-nitro-benzimidoyl-chloride dihydrate] | 45 cell/mm^2 |  |  |  | 5 | vessel relaxing effect (vasodilation by acetylcholine) ([2]; Ach 10^-4 M, 5 mg/kg): 88.1; vessel relaxing effect (vasodilation by acetylcholine) ([2]; Ach 10^-5 M, 5 mg/kg): 84.9; vessel relaxing effect (vasodilation by acetylcholine) ([2]; Ach 10^-6 M, 5 mg/kg): 82.5
